Experiments:
Parameters in all cases: species or system Female Nude mice
[1] = tested on: NCI-N87 xenograft (gastric cancer cell line); assay: Antitumor test in vivo, NCI-N87 xenograft model (Example 4); settings: DS-1062 10 mg/kg IV single dose, AZD6738 25 mg/kg PO QD 14 days
Description: (§1) Female Nude mice (Charles River) aged 5-8 weeks were used, following 7 days acclimatisation before entry into the study. 5×10^6 NCI-N87 tumor cells (gastric cancer cell line) (1:1 in Matrigel) were implanted subcutaneously onto the flank of the female Nude mice. When tumors reached approximately 250 mm^3, similar-sized tumors were randomly assigned to treatment groups as shown in Table 4:
(§2) The dose of compound for each animal was calculated based on the individual body weight on the day of dosing. DS-1062 and AZD6738 were dosed on the same day, with DS-1062 being administered approximately 5 hour post the PO dose of AZD6738. DS-1062 was administered as a single dose at 10 mg/kg on day 1, and AZD6738 was administered at 25 mg/kg QD for 14 days. Duration of dosing was for 14 days.
The dosing solutions for DS-1062 were prepared on the day of dosing by diluting the DS-1062 stock (20.1 mg/ml) in 25 mM histidine buffer, 9% sucrose (pH5.5) to 0.6 mg/ml, and 2 mg/ml for the 3 mg/kg and 10 mg/kg dosing solutions, respectively. Each dosing solution was mixed well using a pipette before administration via IV injection at a dosing volume of 5 ml/kg. […]
(§3) Tumor growth inhibition (TGI) was calculated as follows:
(§4) Statistical significance was evaluated using one-tailed t-test of (log(relative tumor volume)=log(final vol/start vol)) at the day of final measure, comparing to vehicle control. […]

[2] = tested on: CTG-3303 xenograft (TNBC PDX, relapsed on talazoparib); assay: Antitumor test in vivo, TNBC patient derived xenograft model CTG-3303 (Example 5); settings: CTG-3303 TNBC PDX; for TGI % day 46: DS-1062 10 mg/kg IV single dose, AZD6738 25 mg/kg PO QD 14 days; for percentage of mice achieving a complete response (tumor volume=0 mm^3): day 93 post treatment, 8 mice per group, DS-1062 10 mg/kg, AZD6738 25 mg/kg QD
Source text: (§5) Female Nude mice (Charles River) aged 5-8 weeks were used, following 7 days acclimatisation before entry into the study. The human patient-derived xenograft (PDX) model, CTG-3303, was established from fragments of freshly resected tumor of a triple negative breast cancer (TNBC) patient whom relapsed on treatment with PARP inhibitor talazoparib. This PDX was obtained in accordance with appropriate consent procedures. This TNBC PDX model was subcutaneously passaged in vivo as fragments from animal to animal in nude mice. When tumors reached approximately 250 mm^3, similar-sized tumors were randomly assigned to treatment groups as shown in Table 6:
as §2
(§6) The dosing solutions for DS-1062 were prepared on the day of dosing by diluting the DS-1062 stock (20.1 mg/ml) in 25 mM histidine buffer, 9% sucrose (pH5.5) to 0.6 mg/ml, and 2 mg/ml for the 3 mg/kg and 10 mg/kg dosing solutions, respectively. Each dosing solution was mixed well using a pipette before administration via IV injection at a dosing volume of 5 ml/kg.
DMSO (10% of the total vehicle volume) was added to the compound and mixed well with a pellet pestle. Sonication for approximately 5 minutes was required to fully dissolve the compound. Following which, propylene glycol (40% of the total vehicle volume) was added and mixed well using a magnetic stirrer. A volume of 10 ml of sterile water was added to the glass wheaton vial to rinse any remaining compound from the vial then transferred to the glass bottle. The remaining volume of sterile water in total (50% of the final vehicle volume) was added to the glass bottle and mixed well using a magnetic stirrer. The dosing solution was protected from light and kept at room temperature for up to 7 days being continually mixed. The final dosing matrix for 25 mg/kg AZD6738 was a clear solution with a faint yellow hue.
Values shown are geometric mean±SEM; n=8 for all treatment groups. The mice which had reached the humane endpoint (e.g. large tumor burden) during the study were removed from the group and the remaining mice were used for the calculation of the TGI.

[3] = tested on: NCI-N87 xenograft (gastric cancer cell line); assay: Antitumor test in vivo, dose optimization, NCI-N87 xenograft model (Example 7); settings: DS-1062 10 mg/kg IV single dose, AZD6738 25 mg/kg PO BID Day 1-14
Description: as §1, with “(Envigo)” for “(Charles River)”, “9:” for “4:”
The dose of compound for each animal was calculated based on the individual body weight on the day of dosing. DS-1062 was administered as a single dose at 10 mg/kg on day 1, and AZD6738 was administered at 25 mg/kg BID as listed in Table 9.
as §6, with “solution” for “solutions”, “was” for “were”, “to” for “to 0.6 mg/ml, and”, “for” for “for the 3 mg/kg and”, “solution.” for “solutions, respectively.”
(§7) DMSO (10% of the total vehicle volume) was added to the compound and mixed well with a pellet pestle. Sonication for approximately 5 minutes was required to fully dissolve the compound. […]
as §3, §4

[4] = tested on: CTG-3718 xenograft (ovarian PDX, relapsed on talazoparib); assay: Antitumor test in vivo, CTG3718 ovarian patient derived xenograft model (Example 8); settings: CTG-3718 ovarian PDX; DS-1062 10 mg/kg IV single dose; AZD6738 25 mg/kg PO BID Day 1-14
Source text: as §5, with “(Envigo)” for “(Charles River)”, “CTG-3718,” for “CTG-3303,”, “ovarian” for “triple negative breast”, “cancer” for “cancer (TNBC)”, “ovarian” for “TNBC”, “11:” for “6:”
as §2, with “BID” for “QD”, “days.” for “days. Duration of dosing was for 14 days.”
as §6, with “solution” for “solutions”, “was” for “were”, “to” for “to 0.6 mg/ml, and”, “for” for “for the 3 mg/kg and”, “solution. The” for “solutions, respectively. Each”
DMSO (10% of the total vehicle volume) was added to the compound and mixed well with a pellet pestle. […]

[5] = tested on: N87-DS-1062 resistant tumor cell xenograft (gastric cancer cell line); assay: Antitumor test in vivo, N87 DS-1062 resistant model (Example 9); settings: N87-DS-1062 resistant xenograft; DS-1062 10 mg/kg IV single dose; AZD6738 25 mg/kg PO BID Day 1-7
Description: as §1, with “N87-DS-1062 resistant” for “NCI-N87”, “13:” for “4:”
as §2, with “BID” for “QD”, “7” for “14”, “days.” for “days. Duration of dosing was for 14 days.”
as §6, with “solution” for “solutions”, “was” for “were”, “to” for “to 0.6 mg/ml, and”, “for” for “for the 3 mg/kg and”, “solution. The” for “solutions, respectively. Each”
as §7, with “compound. Following which, propylene glycol (40% of the total vehicle volume) was added and mixed well using a magnetic stirrer.” for “compound.”

Molecule | TGI % day 33 [1] [%] | TGI % day 46 [2] [%] | percentage of mice achieving a complete response (tumor volume=0 mm^3) [2] [%] | TGI % day 42 [3] [%] | TGI % day 22 [4] [%] | TGI % day 21 [5] [%]
C[C@@H]1COCCN1c1cc(C2([S@](C)(=N)=O)CC2)nc(-c2ccnc3[nH]ccc23)n1 [AZD6738, 4-{4-[(3R)-3-Methylmorpholin-4-yl]-6-[1-((R)-S-methylsulfonimidoyl)cyclopropyl]pyrimidin-2-yl}-1H-pyrrolo[2,3-b]pyridine] | 30.1 | 2.3 | 0 | 23.7 | −25.7 | −9.8
DS-1062: anti-TROP2 antibody-drug conjugate; exatecan-derivative drug-linker conjugated to the anti-TROP2 antibody via a thioether bond; DAR ~4 (conjugate, chains of the INN, looked up, exatecan-derivative drug-linker, DAR ~4) VH: QVQLVQSGAEVKKPGASVKVSCKASGYTFTTAGMQWVRQAPGQGLEWMGWINTHSGVPKYAEDFKGRVTISADTSTSTAYLQLSSLKSEDTAVYYCARSGFGSSYWYFDVWGQGTLVTVSS VL: DIQMTQSPSSLSASVGDRVTITCKASQDVSTAVAWYQQKPGKAPKLLIYSASYRYTGVPSRFSGSGSGTDFTLTISSLQPEDFAVYYCQQHYITPLTFGQGTKLEIK | 84.1 | 88.2 | 0 | 74.8 | 69.8 | 0.77

Source: US20250064967A1, “COMBINATION OF ANTIBODY-DRUG CONJUGATE AND ATR INHIBITOR” (AstraZeneca UK Limited, priority 2021, published 2025)
